In one experiment the test system is Klebsiella pneumoniae. The experiment can be described thus: microbe, parasite or virus in culture. The conditions noted are these: ATCC 700603, 18 h, ASSAY_TEST Inhibition of Bacterial Growth, detection method Absorption (OD600), MEDIA CAMHB, plate type 384well, NBS, CORNING #3640.
Another experiment relates to Staphylococcus aureus. Nature of the experiment: microbe, parasite or virus in culture. The conditions noted are these: ATCC 43300, 18 h, ASSAY_TEST Inhibition of Bacterial Growth, detection method Absorption (OD600), MEDIA CAMHB, plate type 384well, NBS, CORNING #3640.
A further experiment concerns Acinetobacter baumannii. Nature of the experiment: microbe, parasite or virus in culture. The conditions noted are these: ATCC 19606, 18 h, ASSAY_TEST Inhibition of Bacterial Growth, detection method Absorption (OD600), MEDIA CAMHB, plate type 384well, NBS, CORNING #3640.
For another experiment, the system named is Escherichia coli. Nature of the experiment: microbe, parasite or virus in culture. The conditions noted are these: ATCC 25922, 18 h, ASSAY_TEST Inhibition of Bacterial Growth, detection method Absorption (OD600), MEDIA CAMHB, plate type 384well, NBS, CORNING #3640.
The test system of the next experiment is Pseudomonas aeruginosa. The experiment can be described thus: microbe, parasite or virus in culture. The note with it: ATCC 27853, 18 h, ASSAY_TEST Inhibition of Bacterial Growth, detection method Absorption (OD600), MEDIA CAMHB, plate type 384well, NBS, CORNING #3640.
The next experiment deals with HEK293. The experiment can be described thus: cells. The class given is functional. The conditions noted are these: Homo sapiens, ATCC CRL1573, HEK293; ASSAY_TEST Inhibition of Cell Viability; detection method Resazurin; Fluorescence (ex560/em590); MEDIA DMEM with 10% FBS; plate type 384well; TC; CORNING #3712; time 18 hr.
The subject of a further experiment is Candida albicans. The experiment can be described thus: microbe, parasite or virus in culture. The note with it: ATCC 90028, ASSAY_TEST Inhibition of Fungal Growth, detection method Absorption (OD530), plate type 384well, NBS, CORNING #3640.

In brackets after ≈: the same amount, converted by molar mass.

Our source for the MIC and CC50 values is ChEMBL document CHEMBL4296182, “CO-ADD screening of NIH NCI Diversity Set V”.

As a reminder, the CC50 is the concentration that lowers cell viability or growth by half. Read a low CC50 as greater toxicity to the cells.

Description for Acinetobacter baumannii: Antibacterial activity against Acinetobacter baumannii ATCC 19606 (CO-ADD:GN_034); MIC in CAMBH media using NBS plates, by OD600
Description for Candida albicans: Antifungal activity against Candida albicans ATCC 90028 (CO-ADD:FG_001); MIC in YNB media using NBS plates, by OD630
Description for Cryptococcus neoformans: Antifungal activity against Cryptococcus neoformans H99 ATCC 208821 (CO-ADD:FG_002); MIC in YNB media using NBS plates, by Resazurin OD(600-570)
Description for Escherichia coli: Antibacterial activity against Escherichia coli ATCC 25922 (CO-ADD:GN_001); MIC in CAMBH media using NBS plates, by OD(600)
Description for Klebsiella pneumoniae: Antibacterial activity against Klebsiella pneumoniae MDR ATCC 70063 (CO-ADD:GN_003); MIC in CAMBH media using NBS plates, by OD(600)
Description for Pseudomonas aeruginosa: Antibacterial activity against Pseudomonas aeruginosa ATCC 27853 (CO-ADD:GN_042); MIC in CAMBH media using NBS plates, by OD(600)
Description for Staphylococcus aureus: Antibacterial activity against Staphylococcus aureus MRSA ATCC 43300 (CO-ADD:GP_020); MIC in CAMBH media, using NBS plates, by OD(600)

`O=C(Nc1ccc(Cl)c(Cl)c1)Nc1ccc([N+](=O)[O-])cn1`: the MIC with Klebsiella pneumoniae, against Staphylococcus aureus, with Cryptococcus neoformans, in the experiment on Acinetobacter baumannii, against Escherichia coli and in the experiment with Pseudomonas aeruginosa was above 10 µM in each case. In addition, the MIC against Candida albicans was above 10 µM. The CC50 in the experiment on HEK293 is above 10 µM.
With `O=Nc1c(-c2cccc([N+](=O)[O-])c2)nc2ncccn12`, the MIC against Klebsiella pneumoniae was above 10 µM; in the experiment on Staphylococcus aureus, 0.312 µM (≈ 0.0841 µg/mL); in the experiment on Cryptococcus neoformans, 2.5 µM (≈ 0.673 µg/mL); in the experiment on Acinetobacter baumannii, above 10 µM; with Escherichia coli, above 10 µM; against Pseudomonas aeruginosa, above 10 µM. The compound further returned an MIC against Candida albicans of 0.625 µM (≈ 0.168 µg/mL). This compound registered a CC50 with HEK293 above 10 µM.
Consider `Cc1cnc(SCc2ccc(Cl)cc2Cl)nc1O`, for which the MIC in the experiment with Klebsiella pneumoniae, against Staphylococcus aureus, against Cryptococcus neoformans, in the experiment on Acinetobacter baumannii, in the experiment with Escherichia coli and against Pseudomonas aeruginosa was above 10 µM throughout. Further, the MIC against Candida albicans is above 10 µM. Further, the 50% cytotoxic concentration (CC50) in the experiment on HEK293 was above 10 µM.
Take `O=C1N=C(Nc2nc3ccccc3[nH]2)c2ccccc21`: the MIC in the experiment on Klebsiella pneumoniae, in the experiment on Staphylococcus aureus, in the experiment on Cryptococcus neoformans, against Acinetobacter baumannii, with Escherichia coli and against Pseudomonas aeruginosa was above 10 µM each time. In the experiment with Candida albicans, this compound returned an MIC of 10 µM (≈ 2.62 µg/mL). This compound also registered a CC50 in the experiment with HEK293 above 10 µM.
For the compound `Cn1c(=S)c2nc(SCCN3CCCC3)[nH]c2n(C)c1=O`, the MIC against Klebsiella pneumoniae is above 10 µM; in the experiment on Staphylococcus aureus, above 10 µM; in the experiment on Cryptococcus neoformans it was above 10 µM; in the experiment on Acinetobacter baumannii, above 10 µM; against Escherichia coli, 0.156 µM (≈ 0.0509 µg/mL); in the experiment on Pseudomonas aeruginosa, above 10 µM. The compound also registered an MIC in the experiment with Candida albicans above 10 µM. In the experiment on HEK293, the CC50 was above 10 µM.
Consider `CCOC(=O)/C(C#N)=C1\SS/C(=C(/C#N)C(=O)OCC)S1`, for which the MIC with Klebsiella pneumoniae, with Staphylococcus aureus, against Cryptococcus neoformans, with Acinetobacter baumannii, in the experiment on Escherichia coli and with Pseudomonas aeruginosa was above 10 µM each time. This compound also gave an MIC in the experiment with Candida albicans above 10 µM. Further, the CC50 in the experiment on HEK293 is above 10 µM.
Take `O=[N+]([O-])c1ccc(-c2ccccc2)c([As](=O)(O)O)c1`: the MIC against Klebsiella pneumoniae, in the experiment with Staphylococcus aureus, in the experiment with Cryptococcus neoformans, in the experiment on Acinetobacter baumannii, with Escherichia coli and in the experiment with Pseudomonas aeruginosa was above 10 µM each time. In the experiment with Candida albicans, this compound showed an MIC above 10 µM. The same compound displayed a CC50 in the experiment with HEK293 above 10 µM.
On to `Cc1ccc(C=C2C(Cl)=C(Cl)C(Cl)=C2Cl)cc1`, for which the MIC in the experiment with Klebsiella pneumoniae, in the experiment with Staphylococcus aureus, in the experiment with Cryptococcus neoformans, against Acinetobacter baumannii, in the experiment with Escherichia coli and against Pseudomonas aeruginosa was above 10 µM throughout. Besides, the MIC against Candida albicans is above 10 µM. Besides, in the experiment with HEK293, the CC50 is above 10 µM.
For `Cn1cnc([N+](=O)[O-])c1S(=O)(=O)Oc1cccc2ccccc12`, the MIC in the experiment with Klebsiella pneumoniae, in the experiment on Staphylococcus aureus, in the experiment with Cryptococcus neoformans, in the experiment with Acinetobacter baumannii, in the experiment on Escherichia coli and in the experiment with Pseudomonas aeruginosa was above 10 µM in each case. Also, in the experiment with Candida albicans, the MIC is at most 0.0781 µM. Also, the midpoint of cytotoxicity in the experiment on HEK293, the CC50, lay at 8.21 µM.
With `Cc1ccnc(NC(c2ccccc2)c2ccc3cccnc3c2O)c1` (stereo not given), the MIC in the experiment with Klebsiella pneumoniae, against Staphylococcus aureus, against Cryptococcus neoformans, against Acinetobacter baumannii, in the experiment with Escherichia coli and in the experiment with Pseudomonas aeruginosa was above 10 µM in each case. Further, in the experiment with Candida albicans, the MIC was above 10 µM. The same compound displayed a CC50 with HEK293 above 10 µM.
Regarding `Cc1ccc([S+]([O-])c2ccc([N+](=O)[O-])c3nonc23)cc1` (stereo not given), the MIC with Klebsiella pneumoniae, in the experiment with Staphylococcus aureus, in the experiment on Cryptococcus neoformans, in the experiment on Acinetobacter baumannii, against Escherichia coli and with Pseudomonas aeruginosa was above 10 µM in each case. Moreover, in the experiment with Candida albicans, the MIC was above 10 µM. The same compound displayed a CC50 in the experiment on HEK293 above 10 µM.
In the case of `O=C1C(Cl)=C(NCCc2ccccc2)C(=O)c2ccccc21`, the MIC with Klebsiella pneumoniae was above 10 µM; in the experiment on Staphylococcus aureus, above 10 µM; with Cryptococcus neoformans, 0.625 µM (≈ 0.195 µg/mL); with Acinetobacter baumannii, above 10 µM; in the experiment on Escherichia coli it was above 10 µM; against Pseudomonas aeruginosa it was above 10 µM. This compound yielded an MIC with Candida albicans of 0.625 µM (≈ 0.195 µg/mL). The compound further came in with a cytotoxic concentration (CC50) in the experiment on HEK293 above 10 µM.
On to `C/C(=N/NC(=S)N1CC2CCC(CC2)C1)c1cnccn1`, for which the MIC in the experiment on Klebsiella pneumoniae, in the experiment on Staphylococcus aureus, in the experiment on Cryptococcus neoformans, with Acinetobacter baumannii, against Escherichia coli and in the experiment on Pseudomonas aeruginosa was above 10 µM each time. In the experiment with Candida albicans, the MIC came out at 2.5 µM (≈ 0.759 µg/mL). In addition, the CC50 in the experiment on HEK293 was above 10 µM.
Consider `SC1=NC2(CCCCCC2)NN1c1ccccc1`, for which the MIC with Klebsiella pneumoniae, with Staphylococcus aureus, in the experiment with Cryptococcus neoformans, with Acinetobacter baumannii, against Escherichia coli and in the experiment on Pseudomonas aeruginosa was above 10 µM in each case. The compound further came in with an MIC against Candida albicans above 10 µM. Besides, the CC50 in the experiment on HEK293 is above 10 µM.
As for `Cc1c(-c2ccccc2)n(O)[n+]([O-])c1-c1ccccc1`, the MIC against Klebsiella pneumoniae, in the experiment on Staphylococcus aureus, with Cryptococcus neoformans, against Acinetobacter baumannii, against Escherichia coli and in the experiment on Pseudomonas aeruginosa was above 10 µM in each case. Also, the MIC with Candida albicans is above 10 µM. In the experiment on HEK293, this compound registered a CC50 above 10 µM.
On to `C#CC(c1ccccc1)(c1ccccc1)n1ccnc1`, for which the MIC against Klebsiella pneumoniae, in the experiment on Staphylococcus aureus, in the experiment on Cryptococcus neoformans, against Acinetobacter baumannii, with Escherichia coli and in the experiment on Pseudomonas aeruginosa was above 10 µM in each case. This compound also displayed an MIC with Candida albicans above 10 µM. The same compound had a CC50 in the experiment with HEK293 above 10 µM.
As for `COC(=O)N1C2CCCCC2=NN(c2ccccc2)N1C(=O)OC` (stereo not given), the MIC in the experiment with Klebsiella pneumoniae, in the experiment on Staphylococcus aureus, with Cryptococcus neoformans, with Acinetobacter baumannii, against Escherichia coli and in the experiment with Pseudomonas aeruginosa was above 10 µM throughout. In the experiment with Candida albicans, this compound showed an MIC above 10 µM. In the experiment on HEK293, this compound had a CC50 above 10 µM.
In the case of `NC(=S)c1cn(C2OC(CO)C(O)C2O)c2ncnc(N)c12` (stereo not given), the MIC against Klebsiella pneumoniae, in the experiment on Staphylococcus aureus, in the experiment on Cryptococcus neoformans, in the experiment with Acinetobacter baumannii, in the experiment with Escherichia coli and in the experiment with Pseudomonas aeruginosa was above 10 µM in each case. The compound further registered an MIC against Candida albicans of 10 µM (≈ 3.25 µg/mL). The compound further had a CC50 in the experiment with HEK293 of 0.521 µM.
Take `C=C(C)C(=O)Oc1ccc(/N=N/c2ccc(C)cc2)ccc1=O`: the MIC in the experiment on Klebsiella pneumoniae, in the experiment with Staphylococcus aureus, against Cryptococcus neoformans, against Acinetobacter baumannii, against Escherichia coli and against Pseudomonas aeruginosa was above 10 µM each time. For the same compound, the MIC in the experiment with Candida albicans was determined as 10 µM (≈ 3.08 µg/mL). In the experiment on HEK293, this compound came in with a CC50 above 10 µM.
As to `O=[N+]([O-])c1ccc(Sc2cccc[n+]2[O-])c2nonc12`, the MIC with Klebsiella pneumoniae was above 10 µM; in the experiment on Staphylococcus aureus it was above 10 µM; with Cryptococcus neoformans it was 10 µM (≈ 2.9 µg/mL); against Acinetobacter baumannii it was above 10 µM; with Escherichia coli it was above 10 µM; against Pseudomonas aeruginosa it was above 10 µM. In the experiment with Candida albicans, this compound registered an MIC of 1.25 µM (≈ 0.363 µg/mL). The compound also had a CC50 in the experiment on HEK293 of 2.53 µM.
